Converted amounts (≈) assume the structure as drawn. Square brackets hold non-standard residues; d marks the D form. Peptide text beside a SMILES is read from it. * marks the point of attachment. 5FAM = O=C1OC2(c3ccc(O)cc3Oc3cc(O)ccc32)c2ccc(C(=O)*)cc21; Ac6c = NC1(C(=O)O)CCCCC1
Key:
[1] = biological target: T1, E. coli DnaK (Escherichia coli, UniProt P0A6Y8); experiment: ATPase activity assay (malachite green), DnaK alone; format: biochemical; conditions: ARV-1502 concentration series, plateau
T1 construct: His6-tag with TEV site ([…]) (N, cleaved yes); made in house; host or cells: E. coli (DE3) Rosetta pLysS
Method: (§1) ATPase activity of E. coli and S. aureus chaperones was studied in the presence of an AMP using a 384-well plate colorimetric assay ([Chang et al., 2008]; [Zahn et al., 2013]). […] Each sample was prepared in triplicates on the same plate. The reaction was started by addition of ATP dissolved in assay buffer (5 µL, 4 mmol/L) and the plate centrifuged (500 × g, 2 min; Allegra™ 21R, Beckmann Coulter, Krefeld, Germany) before incubated (37°C, 2 h). The released phosphate was quantified using an external phosphate dilution series (10–200 µmol/L KH2PO4 in assay buffer) prepared on each plate and treated equally as the samples. The reaction was stopped by adding assay buffer (80 µL) to all samples except the phosphate dilution series. […] After 15 min, the absorbance was recorded at 620 nm on the […]™ microplate reader. […]
(§2) The impact of ARV-1502 and its analogs on the ATPase activity of DnaK was investigated in 384-well plates using the malachite green absorbance assay, which quantitates phosphate (Pi) cleaved from ATP confirming for example the ATPase activity of DnaK. The established assay allowed a robust and reproducible quantitation of phosphate from 10 to 150 µmol/L and was easy to handle (Supplementary Figure S3) providing the intended high-throughput screening. […]

[2] = biological target: T2, S. aureus DnaK (Staphylococcus aureus, UniProt P99110); experiment: as above; format: biochemical; conditions: ARV-1502 concentration series, plateau
T2 construct: His6-tag with TEV site ([…]) (N, cleaved yes); made in house; host or cells: E. coli (DE3) Rosetta pLysS
Method: as §1, §2

[3] = test system: E. coli JW0013 ∆dnaK; conditions: 25% MHB2, 37°C, 20 h
[4] = biological target: T2, S. aureus DnaK; experiment: Fluorescence polarization Kd with Cf-labeled peptide; format: binding
Method: (§3) Dissociation (Kd) and inhibitory constants (Ki) were measured using a previously reported protocol with slight modifications ([Krizsan et al., 2015]; [Kolano et al., 2020]). Briefly, black 384-well plates (flat bottom, Greiner Bio-One GmbH, Frickenhausen, Germany) were blocked with 0.5% (w/v) casein in phosphate buffered saline (PBS; 10 mmol/L Na2HPO4, 0.2 mmol/L KH2PO4, 137 mmol/L NaCl, 2.7 mmol/L KCl, pH 7.4) containing 0.05% (w/v) Tween® 20 (PBST) at 4°C overnight and washed three times with PBST. […] The 5 (6)-carboxyfluorescein-labeled peptide was added (20 μL/well, 40 nmol/L), incubated (2 h, 28°C, dark), and the fluorescence polarization recorded at an excitation wavelength (λ ex) of 485 nm and an emission wavelength (λem) of 535 nm using a […] ™ microplate reader (Beckman Coulter, Krefeld, Germany). Ki values were determined using a twofold dilution series of unlabeled peptide (20 µL/well) and DnaK (10 µL/well). The plate was incubated at 28°C in the dark for 90 min before the Cf-labeled peptides were added (10 µL/well, 80 nmol/L). After a second incubation (90 min, 28°C), the fluorescence polarization was recorded (λ ex = 485 nm, λ em = 535 nm). Dissociation and inhibitory constants were calculated by fitting the data with a variable slope parameter [y = min + (max- min)/(1+(x/Kd) ^−Hill slope)] using SigmaPlot 13 (Systat Software Inc., San Jose, CA, United States).

[5] = biological target: E. coli DnaJ (Escherichia coli, UniProt P08622); experiment: as above; conditions: E. coli proteins, ratio of Kd
Method: as §3

[6] = biological target: T3, E. coli DnaK/DnaJ/GrpE (Escherichia coli, UniProt P0A6Y8); experiment: Fluorescence polarization Kd with Cf-labeled peptide, full chaperone system; format: binding; conditions: ratio of Kd
T3 construct: made in house; host or cells: E. coli (DE3) Rosetta pLysS
Method: as §3

[7] = biological target: E. coli GrpE (Escherichia coli, UniProt P09372); experiment: Fluorescence polarization Kd with Cf-labeled peptide; conditions: E. coli proteins, ratio of Kd
Method: as §3

[8] = biological target: S. aureus DnaJ (Staphylococcus aureus, UniProt P63971); experiment: as above; conditions: FP, * = upper plateau not reached, Kd only approximate
Method: as §3

[9] = biological target: T1, E. coli DnaK; format: binding
Method: The plate was incubated (90 min, 28°C, dark) and Cf-ARV-1502 (80 nmol/L; 10 µL/well) added. […] Each peptide was screened in duplicate. Control samples either lacked the unlabeled peptide (maximum) or contained Cf-ARV-1502 in buffer (minimum).
The quality of the experimental set up was evaluated by the Z′ factor ([Zhang et al., 1999]) (Supplementary Table S2). […] The obtained FP-values were normalized to the FP-values determined for lead sequence ARV-1502.

[10] = test system: E. coli BW25113; conditions: 25% MHB2, 7.5 × 10^6 cfu/mL, 37°C, 20 h
Method: Minimal inhibitory concentrations (MICs) were determined using a liquid broth micro dilution assay in sterile 96-well plates (polystyrene F-bottom, Greiner Bio-One GmbH) and a total volume of 100 μL per well. […] Overnight cultures of bacteria, i.e., E. coli BW25113 or S. aureus DSM 6247, grown in 25% MHB2 were diluted 30-fold in 25% MHB2. After an incubation period of 4 h (37°C, 200 rpm), cells were diluted to 1.5 × 10^7 cfu/mL, based on a McFarland test, and 50 μL were added to each well (final concentration of 7.5 × 10^6 cfu/mL per well). The plates were incubated (37°C, 20 h) and the optical density was determined at 595 nm using the […]™ microplate reader. The MIC was defined as the lowest peptide concentration preventing visible bacterial growth.

[11] = biological target: T2, S. aureus DnaK; experiment: FP peptide binding screening against Cf-ARV-1502; conditions: screening: DnaK 16 µmol/L, unlabeled peptide 35 µmol/L, duplicate, below 1 = better than ARV-1502

T2 sequence (P99110 whole entry): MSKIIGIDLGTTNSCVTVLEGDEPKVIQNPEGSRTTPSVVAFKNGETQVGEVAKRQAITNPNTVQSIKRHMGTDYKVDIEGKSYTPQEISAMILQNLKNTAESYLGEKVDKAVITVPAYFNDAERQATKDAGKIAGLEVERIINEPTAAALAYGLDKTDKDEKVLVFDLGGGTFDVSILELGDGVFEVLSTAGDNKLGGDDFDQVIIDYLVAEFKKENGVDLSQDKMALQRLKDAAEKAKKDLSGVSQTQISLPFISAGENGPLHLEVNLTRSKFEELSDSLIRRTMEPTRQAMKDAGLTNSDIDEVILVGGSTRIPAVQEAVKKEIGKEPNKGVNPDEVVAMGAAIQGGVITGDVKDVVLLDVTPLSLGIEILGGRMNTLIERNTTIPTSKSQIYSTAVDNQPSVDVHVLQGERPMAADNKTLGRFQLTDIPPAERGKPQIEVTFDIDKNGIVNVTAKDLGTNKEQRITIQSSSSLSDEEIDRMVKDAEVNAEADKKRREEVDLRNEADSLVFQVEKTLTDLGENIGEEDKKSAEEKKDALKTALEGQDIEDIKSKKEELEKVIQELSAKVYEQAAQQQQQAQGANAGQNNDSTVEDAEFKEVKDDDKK
T1 sequence (P0A6Y8 whole entry): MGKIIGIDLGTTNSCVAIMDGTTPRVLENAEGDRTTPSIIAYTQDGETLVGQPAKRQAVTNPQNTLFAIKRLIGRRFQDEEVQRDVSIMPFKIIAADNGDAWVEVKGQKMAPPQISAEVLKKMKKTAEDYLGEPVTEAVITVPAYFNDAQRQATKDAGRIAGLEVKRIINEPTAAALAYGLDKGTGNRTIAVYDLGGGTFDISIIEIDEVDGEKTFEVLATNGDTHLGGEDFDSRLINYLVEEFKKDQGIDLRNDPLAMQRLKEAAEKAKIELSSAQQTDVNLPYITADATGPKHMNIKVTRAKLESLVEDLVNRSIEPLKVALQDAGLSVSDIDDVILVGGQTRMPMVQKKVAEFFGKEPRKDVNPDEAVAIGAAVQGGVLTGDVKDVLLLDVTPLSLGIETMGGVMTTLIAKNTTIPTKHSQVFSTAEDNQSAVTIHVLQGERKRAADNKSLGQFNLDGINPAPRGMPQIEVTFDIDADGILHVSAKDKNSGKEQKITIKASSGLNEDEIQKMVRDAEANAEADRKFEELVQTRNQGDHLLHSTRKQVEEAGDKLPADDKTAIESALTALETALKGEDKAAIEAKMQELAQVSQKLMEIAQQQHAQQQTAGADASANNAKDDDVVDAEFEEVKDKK
E. coli GrpE, sequence (P09372 whole entry): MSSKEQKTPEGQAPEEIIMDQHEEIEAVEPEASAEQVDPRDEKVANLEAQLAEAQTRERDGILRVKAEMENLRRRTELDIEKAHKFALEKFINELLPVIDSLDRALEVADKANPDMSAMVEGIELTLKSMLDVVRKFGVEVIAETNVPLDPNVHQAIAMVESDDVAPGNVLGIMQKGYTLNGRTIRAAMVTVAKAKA
E. coli DnaJ, sequence (P08622 whole entry): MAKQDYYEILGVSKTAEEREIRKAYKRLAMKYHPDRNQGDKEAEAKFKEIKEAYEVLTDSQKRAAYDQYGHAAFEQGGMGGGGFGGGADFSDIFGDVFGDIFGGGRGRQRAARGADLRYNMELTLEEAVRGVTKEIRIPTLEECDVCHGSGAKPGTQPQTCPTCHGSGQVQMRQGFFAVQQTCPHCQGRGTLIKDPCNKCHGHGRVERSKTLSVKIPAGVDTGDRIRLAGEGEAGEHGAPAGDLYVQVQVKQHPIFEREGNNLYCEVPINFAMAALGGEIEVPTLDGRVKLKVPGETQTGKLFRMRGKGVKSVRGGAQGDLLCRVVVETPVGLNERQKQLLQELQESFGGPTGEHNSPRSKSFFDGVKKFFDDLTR
T3 sequence (P0A6Y8 whole entry): as the sequence (P0A6Y8 whole entry) above
S. aureus DnaJ, sequence (P63971 whole entry): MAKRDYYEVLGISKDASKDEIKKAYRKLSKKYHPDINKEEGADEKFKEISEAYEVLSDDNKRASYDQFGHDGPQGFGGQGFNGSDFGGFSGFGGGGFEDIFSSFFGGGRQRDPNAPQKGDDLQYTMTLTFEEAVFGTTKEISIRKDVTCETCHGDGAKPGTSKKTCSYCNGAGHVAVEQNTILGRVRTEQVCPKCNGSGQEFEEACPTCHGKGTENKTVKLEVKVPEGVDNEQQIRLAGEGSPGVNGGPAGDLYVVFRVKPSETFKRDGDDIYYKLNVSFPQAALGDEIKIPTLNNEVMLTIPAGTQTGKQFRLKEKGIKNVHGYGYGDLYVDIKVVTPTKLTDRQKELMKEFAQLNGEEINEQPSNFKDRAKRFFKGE

Question: `CC(C)C[C@H](NC(=O)[C@H](Cc1ccc(O)cc1)NC(=O)[C@@H]1CCCN1C(=O)[C@H](CCCNC(=N)N)NC(=O)[C@@H]1CCCN1C(=O)[C@H](CCCCN)NC(=O)[C@H](CC(=O)O)NC(=O)[C@@H]1CCCN1C(=O)[C@H](CCCNC(=N)N)NC(=O)C1(N)CCCCC1)C(=O)N1CCC[C@H]1C(=O)N[C@@H](CCCNC(=N)N)C(=O)N1CCC[C@H]1C(=O)N[C@@H](CCCNC(=N)N)C(=O)N1CCC[C@H]1C(=O)N1CCC[C@H]1C(=O)N[C@@H](CCCNC(=N)N)C(=O)N1CCC[C@H]1C(=O)N[C@H](C(=O)N[C@@H](CCCNC(=N)N)C(N)=O)C(C)C` [ARV-1502] (H-[Ac6c]RPDKPRPYLPRPRPPRPVR-NH2) was tested. Which “increase of intrinsic ATPase activity of E. coli DnaK” value [1] did it give?
Answer: ~250%

Question: What about the “stimulation of intrinsic ATPase activity of S. aureus DnaK” value [2] of the same compound?
Answer: 50%

Question: What about the “MIC, E. coli JW0013 ∆dnaK” value [3] of the same compound?
Answer: 4 to 8 µg/mL

Question: `CC(C)C[C@H](NC(=O)[C@H](Cc1ccc(O)cc1)NC(=O)[C@@H]1CCCN1C(=O)[C@H](CCCNC(=N)N)NC(=O)[C@@H]1CCCN1C(=O)[C@H](CCCCN)NC(=O)[C@H](CC(=O)O)NC(=O)[C@@H]1CCCN1C(=O)[C@H](CCCNC(=N)N)NC(=O)C1(NC(=O)c2ccc3c(c2)C(=O)OC32c3ccc(O)cc3Oc3cc(O)ccc32)CCCCC1)C(=O)N1CCC[C@H]1C(=O)N[C@@H](CCCNC(=N)N)C(=O)N1CCC[C@H]1C(=O)N[C@@H](CCCNC(=N)N)C(=O)N1CCC[C@H]1C(=O)N1CCC[C@H]1C(=O)N[C@@H](CCCNC(=N)N)C(=O)N1CCC[C@H]1C(=O)N[C@H](C(=O)N[C@@H](CCCNC(=N)N)C(N)=O)C(C)C` [Cf-ARV-1502] (5FAM-[Ac6c]RPDKPRPYLPRPRPPRPVR-NH2) was tested. Which “times weaker binding to S. aureus DnaK than to E. coli DnaK” value ([4]; ratio of Kd) did it give?
Answer: around 100 times

Question: And the “fold weaker binding to DnaJ than to DnaK” value [5]?
Answer: ~150 fold

Question: What about the “fold higher Kd for E. coli DnaK/DnaJ/GrpE-system than for DnaK alone” value [6] of the same compound?
Answer: 15 fold

Question: What about the “fold weaker binding to GrpE than to DnaK” value [7] of the same compound?
Answer: ~1,000 fold

Question: What about the “Kd, S. aureus DnaJ” value [8] of the same compound?
Answer: no fit

Question: For `CC(C)C[C@H](NC(=O)[C@H](Cc1ccc(O)cc1)NC(=O)[C@@H]1CCCN1C(=O)[C@H](CCCNC(=N)N)NC(=O)[C@@H]1CCCN1C(=O)[C@H](CCCCN)NC(=O)[C@H](CCCCN)NC(=O)[C@@H]1CCCN1C(=O)[C@H](CCCNC(=N)N)NC(=O)C1(N)CCCCC1)C(=O)N1CCC[C@H]1C(=O)N[C@@H](CC(C)C)C(=O)N1CCC[C@H]1C(=O)N[C@@H](CCCNC(=N)N)C(=O)N1CCC[C@H]1C(=O)N1CCC[C@H]1C(=O)N[C@@H](CCCNC(=N)N)C(=O)N1CCC[C@H]1C(=O)N[C@H](C(=O)N[C@@H](CCCNC(=N)N)C(N)=O)C(C)C` [compound 45] (H-[Ac6c]RPKKPRPYLPLPRPPRPVR-NH2), which “DnaK binding in the screening, in words” value ([9]; FP screening, DnaK variant not stated at the place) is on record?
Answer: best binding

Question: And the “MIC, E. coli BW25113” value [10]?
Answer: >128 µg/mL

Question: And the “MIC, E. coli JW0013 ∆dnaK” value [3]?
Answer: >128 µg/mL

Question: `CC(C)C[C@H](NC(=O)[C@H](Cc1ccc(O)cc1)NC(=O)[C@@H]1CCCN1C(=O)[C@H](CCCNC(=N)N)NC(=O)[C@@H]1CCCN1C(=O)[C@H](Cc1ccccc1)NC(=O)[C@H](Cc1ccccc1)NC(=O)[C@@H]1CCCN1C(=O)[C@H](CCCNC(=N)N)NC(=O)C1(N)CCCCC1)C(=O)N1CCC[C@H]1C(=O)N[C@@H](CC(C)C)C(=O)N1CCC[C@H]1C(=O)N[C@@H](CCCNC(=N)N)C(=O)N1CCC[C@H]1C(=O)N1CCC[C@H]1C(=O)N[C@@H](CCCNC(=N)N)C(=O)N1CCC[C@H]1C(=O)N[C@H](C(=O)N[C@@H](CCCNC(=N)N)C(N)=O)C(C)C` [peptide 102] (H-[Ac6c]RPFFPRPYLPLPRPPRPVR-NH2) was tested. Which “fold lower Kd than lead structure ARV-1502, S. aureus DnaK” value ([4]; ratio of Kd of Cf-labeled peptides) did it give?
Answer: 20 fold

Question: And the “binding to S. aureus DnaK, FP-value normalized to ARV-1502” value [11]?
Answer: best binders

Question: What about the “binding to E. coli DnaK, FP-value normalized to ARV-1502” value [9] of the same compound?
Answer: best binders

Question: And the “MIC, E. coli JW0013 ∆dnaK” value [3]?
Answer: 32 µg/mL (≈ 12.9 µM)

— PMC8864165, “Functional Effects of ARV-1502 Analogs Against Bacterial Hsp70 and Implications for Antimicrobial Activity” (Frontiers in Chemistry, 2022)
